How the values were obtained:
[1] = target: T1, PDE3A catalytic domain (PDE3Acat) (Homo sapiens, UniProt Q14432); assay: Phosphodiesterase inhibitory activity, PDE3 ([3H]cAMP, recombinant enzyme); assay type: biochemical; conditions: 30° C., 20 minutes, read-out: IC50(μmol/L) PDE3
T1 construct: made in house; host or cells: Sf9 insect cells (baculovirus, Bac-to-Bac / Gateway)

PDE4Bcat = target: T2, PDE4Bcat (Homo sapiens, UniProt Q07343); assay: Phosphodiesterase inhibitory activity, PDE4 ([3H]cAMP, recombinant enzyme); assay type: biochemical; conditions: 30° C., 20 minutes, read-out: IC50(μmol/L) PDE4
T2 construct: made in house; host or cells: Sf9 insect cells (baculovirus, Bac-to-Bac / Gateway)
T2 sequence (Q07343 330-659 limits assumed): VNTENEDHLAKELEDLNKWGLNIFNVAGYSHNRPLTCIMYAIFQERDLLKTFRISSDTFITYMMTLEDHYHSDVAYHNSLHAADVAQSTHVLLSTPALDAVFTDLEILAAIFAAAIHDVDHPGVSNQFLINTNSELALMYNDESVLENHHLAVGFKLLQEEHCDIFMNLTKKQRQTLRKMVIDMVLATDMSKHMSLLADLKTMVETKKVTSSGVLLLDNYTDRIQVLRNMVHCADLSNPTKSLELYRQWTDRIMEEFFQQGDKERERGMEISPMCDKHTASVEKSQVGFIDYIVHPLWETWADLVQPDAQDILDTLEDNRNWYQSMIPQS

[2] = system: histamine-induced bronchoconstriction in guinea pigs; assay: Histamine-induced bronchoconstriction reaction in guinea pigs; assay type: in vivo; conditions: Cavia porcellus, iv, 0.5 min, guinea pig, measured 30 seconds after administration, read-out: Inhibition rate (histamine-induced bronchoconstriction); for inhibition in vivo at 0.3 mg/kg: compound 0.3 mg/kg, i.v.; for inhibition in vivo at 0.1 mg/kg: compound 0.1 mg/kg, i.v. (values in [ ])
Procedure: Guinea pigs were anesthetized with pentobarbital (30 mg/kg, i.p.). A cannula for intravenous administration was inserted into the left external jugular vein, a cannula for collecting blood and measuring blood pressure was inserted into the right internal carotid artery, and a tracheal cannula was inserted into the trachea. The guinea pigs were maintained on artificial respiration under the conditions of 60 times/min and 10 mL/kg/stroke. The airflow from the side branch of the tracheal cannula was measured by a bronchospasm transducer (Ugo-Basile) and recorded on a computer via Power Lab (ADInstruments Japan). The guinea pigs were immobilized with gallamine (10 mg/kg, i.v.), and histamine (12.5 μg/kg, i.v.) was administered at 10-minute intervals. After the histamine-induced bronchoconstriction became stable, the compound (0.3 mg/kg, i.v.) was administered. The histamine-induced bronchoconstriction reaction was measured 30 seconds after the compound administration to examine the bronchoconstriction inhibitory activity of the compound. The bronchoconstriction was recorded as the airflow value, and the results were represented by the ratio of the maximum value of the histamine- induced airflow 30 seconds after the administration to the maximum value of the airflow before the administration. Also, the test compounds dissolved in DMSO were used. Further, the indications were as follows: inhibition rate≧90% (+++), 90%>inhibition rate≧80% (++), and 80%>inhibition rate≧70% (+). [ ] means the results in the case of 0.1 mg/kg, i.v.

T1 sequence (Q14432 674-1093 limits assumed): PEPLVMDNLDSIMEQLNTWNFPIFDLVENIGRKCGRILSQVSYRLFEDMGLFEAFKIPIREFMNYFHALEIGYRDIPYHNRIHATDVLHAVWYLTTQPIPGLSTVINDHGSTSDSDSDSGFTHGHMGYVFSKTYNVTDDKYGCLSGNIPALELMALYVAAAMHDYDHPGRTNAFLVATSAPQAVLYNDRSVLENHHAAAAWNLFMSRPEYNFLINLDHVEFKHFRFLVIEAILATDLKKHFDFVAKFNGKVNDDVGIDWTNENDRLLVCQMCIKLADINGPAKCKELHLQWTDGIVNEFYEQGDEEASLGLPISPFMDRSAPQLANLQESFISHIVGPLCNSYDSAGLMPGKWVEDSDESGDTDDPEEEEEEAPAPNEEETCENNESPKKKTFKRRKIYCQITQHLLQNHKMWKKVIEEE

Row | IC50 [1] | IC50 (PDE4Bcat) | SMILES | inhibition in vivo at 0.3 mg/kg [2] | inhibition in vivo at 0.1 mg/kg [2]
1 | < 0.1 µmol/L | < 0.1 µmol/L | COc1ccc(-c2ccc(=O)n(CCCCOc3ccc(C4=NNC(=O)CC4C)c(F)c3F)n2)c2ccc(C)nc12 (stereo not drawn) [Example 273, 2-[4-[2,3-Difluoro-4-(4-methyl-6-oxo-1,4,5,6-tetrahydropyridazin-3-yl)phenoxy]butyl]-6-(8-methoxy-2-methylquinolin-5-yl)-2H-pyridazin-3-one] | ≥ 90% | –
2 | < 0.1 µmol/L | 1 to 10 µmol/L | COc1ccc(-c2ccc(=O)n(CCCCOc3ccc(C4=NNC(=O)C4(C)C)c(F)c3F)n2)c2nc(C(F)(F)F)[nH]c12 [Example 277, 2-[4-[2,3-Difluoro-4-(4,4-dimethyl-5-oxo-4,5-dihydro-1H-pyrazol-3-yl)phenoxy]butyl]-6-(4-methoxy-2-trifluoromethyl-1H-benzimidazol-7-yl)-2H-pyridazin-3-one] | 80 to 90% | –
3 | < 0.1 µmol/L | 1 to 10 µmol/L | COc1ccc(-c2ccc(=O)n(CCCCOc3ccc(C4=NNC(=O)CC4)c(F)c3F)n2)c2nc(C(F)(F)F)[nH]c12 [Example 278, 2-[4-[2,3-Difluoro-4-(6-oxo-1,4,5,6-tetrahydropyridazin-3-yl)phenoxy]butyl]-6-(4-methoxy-2-trifluoromethyl-1H-benzimidazol-7-yl)-2H-pyridazin-3-one] | ≥ 90% | –
4 | < 0.1 µmol/L | 0.1 to 1 µmol/L | COc1ccc(-c2ccc(=O)n(CCCCOc3ccc(C4=NNC(=O)CC4C)c(F)c3F)n2)c2nc(C(F)(F)F)[nH]c12 (stereo not drawn) [Example 279, 2-[4-[2,3-Difluoro-4-(4-methyl-6-oxo-1,4,5,6-tetrahydropyridazin-3-yl)phenoxy]butyl]-6-(4-methoxy-2-trifluoromethyl-1H-benzimidazol-7-yl)-2H-pyridazin-3-one] | ≥ 90% | –
5 | < 0.1 µmol/L | < 0.1 µmol/L | CCc1ccc2c(-c3ccc(=O)n(CCCCOc4ccc(C5=NNC(=O)CC5C)cc4F)n3)ccc(OC)c2n1 (stereo not drawn) [Example 287, 6-(2-Ethyl-8-methoxyquinolin-5-yl)-2-[4-[2-fluoro-4-(4-methyl-6-oxo-1,4,5,6-tetrahydropyridazin-3-yl)phenoxy]butyl]-2H-pyridazin-3-one] | ≥ 90% | –
6 | 0.1 to 1 µmol/L | 0.1 to 1 µmol/L | CCc1ccc2c(-c3ccc(=O)n(CCCCOc4ccc(C5=NNC(=O)CC5C)cc4OC)n3)ccc(OC)c2n1 (stereo not drawn) [Example 288, 6-(2-Ethyl-8-methoxyquinolin-5-yl)-2-[4-[2-methoxy-4-(4-methyl-6-oxo-1,4,5,6-tetrahydropyridazin-3-yl)phenoxy]butyl]-2H-pyridazin-3-one] | 80 to 90% | –
7 | < 0.1 µmol/L | < 0.1 µmol/L | CCc1ccc2c(-c3ccc(=O)n(CCCCOc4ccc(C5=NNC(=O)C5(C)C)c(F)c4F)n3)ccc(OC)c2n1 [Example 290, 6-(2-Ethyl-8-methoxyquinolin-5-yl)-2-[4-[2,3-difluoro-4-(4,4-dimethyl-5-oxo-4,5-dihydro-1H-pyrazol-3-yl)phenoxy]butyl]-2H-pyridazin-3-one] | ≥ 90% | –
8 | 1 to 10 µmol/L | 0.1 to 1 µmol/L | CCc1ccc2c(-c3ccc(=O)n(CCCCOc4ccc(C5=NNC(=O)CC5)cc4OC)n3)ccc(OC)c2n1 [Example 291, 6-(2-Ethyl-8-methoxyquinolin-5-yl)-2-[4-[2-methoxy-4-(6-oxo-1,4,5,6-tetrahydropyridazin-3-yl)phenoxy]butyl]-2H-pyridazin-3-one] | 70 to 80% | –
9 | 1 to 10 µmol/L | 0.1 to 1 µmol/L | CCc1ccc2c(C3=NN(CCCOc4ccc(C5=NNC(=O)CC5C)cc4)C(=O)CC3C)ccc(OC)c2n1 (stereo not drawn) [Example 292] | 80 to 90% | –
10 | 0.1 to 1 µmol/L | 0.1 to 1 µmol/L | CCc1ccc2c(C3=NN(CCCCOc4ccc(C5=NNC(=O)CC5C)cc4OC)C(=O)CC3C)ccc(OC)c2n1 (stereo not drawn) [Example 293, 6-(2-Ethyl-8-methoxyquinolin-5-yl)-5-methyl-2-[4-[2-methoxy-4-(4-methyl-6-oxo-1,4,5,6-tetrahydropyridazin-3-yl)phenoxy]butyl]-4,5-dihydro-2H-pyridazin-3-one] | – | 70 to 80%
11 | < 0.1 µmol/L | < 0.1 µmol/L | CCc1ccc2c(C3=NN(CCCCOc4ccc(C5=NNC(=O)CC5C)cc4F)C(=O)CC3C)ccc(OC)c2n1 (stereo not drawn) [Example 294, 6-(2-Ethyl-8-methoxyquinolin-5-yl)-5-methyl-2-[4-[2-fluoro-4-(4-methyl-6-oxo-1,4,5,6-tetrahydropyridazin-3-yl)phenoxy]butyl]-4,5-dihydro-2H-pyridazin-3-one] | – | ≥ 90%
12 | < 0.1 µmol/L | < 0.1 µmol/L | CCc1ccc2c(C3=NN(CCCCOc4ccc(C5=NNC(=O)CC5C)c(F)c4F)C(=O)CC3C)ccc(OC)c2n1 (stereo not drawn) [Example 295, 6-(2-Ethyl-8-methoxyquinolin-5-yl)-5-methyl-2-[4-[2,3-difluoro-4-(4-methyl-6-oxo-1,4,5,6-tetrahydropyridazin-3-yl)phenoxy]butyl]-4,5-dihydro-2H-pyridazin-3-one] | – | 80 to 90%
13 | 1 to 10 µmol/L | < 0.1 µmol/L | CCc1ccc2c(C3=NN(CCCCOc4ccc(C5=NNC(=O)CC5)cc4)C(=O)CC3C)ccc(OC)c2n1 (stereo not drawn) [Example 296, 6-(2-Ethyl-8-methoxyquinolin-5-yl)-5-methyl-2-[4-[4-(6-oxo-1,4,5,6-tetrahydropyridazin-3-yl)phenoxy]butyl]-4,5-dihydro-2H-pyridazin-3-one] | – | 80 to 90%
14 | 1 to 10 µmol/L | 0.1 to 1 µmol/L | CCc1ccc2c(C3=NN(CCCCOc4ccc(C5=NNC(=O)CC5)cc4OC)C(=O)CC3C)ccc(OC)c2n1 (stereo not drawn) [Example 297, 6-(2-Ethyl-8-methoxyquinolin-5-yl)-5-methyl-2-[4-[2-methoxy-4-(6-oxo-1,4,5,6-tetrahydropyridazin-3-yl)phenoxy]butyl]-4,5-dihydro-2H-pyridazin-3-one] | ≥ 90% | –
15 | < 0.1 µmol/L | < 0.1 µmol/L | CCc1ccc2c(C3=NN(CCCCOc4ccc(C5=NNC(=O)CC5)cc4F)C(=O)CC3C)ccc(OC)c2n1 (stereo not drawn) [Example 298, 6-(2-Ethyl-8-methoxyquinolin-5-yl)-5-methyl-2-[4-[2-fluoro-4-(6-oxo-1,4,5,6-tetrahydropyridazin-3-yl)phenoxy]butyl]-4,5-dihydro-2H-pyridazin-3-one] | – | ≥ 90%
16 | 1 to 10 µmol/L | < 0.1 µmol/L | CCc1ccc2c(C3=NN(CCCCOc4ccc(C5=NNC(=O)C5(C)C)cc4)C(=O)CC3C)ccc(OC)c2n1 (stereo not drawn) [Example 300, 6-(2-Ethyl-8-methoxyquinolin-5-yl)-5-methyl-2-[4-[4-(4,4-dimethyl-5-oxo-4,5-dihydro-1H-pyrazol-3-yl)phenoxy]butyl]-4,5-dihydro-2H-pyridazin-3-one] | 70 to 80% | –
17 | ≥ 10 µmol/L | 0.1 to 1 µmol/L | CCc1ccc2c(C3=NN(CCCCOc4ccc(C5=NNC(=O)C5(C)C)cc4OC)C(=O)CC3C)ccc(OC)c2n1 (stereo not drawn) [Example 301, 6-(2-Ethyl-8-methoxyquinolin-5-yl)-5-methyl-2-[4-[2-methoxy-4-(4,4-dimethyl-5-oxo-4,5-dihydro-1H-pyrazol-3-yl)phenoxy]butyl]-4,5-dihydro-2H-pyridazin-3-one] | 80 to 90% | –

Source: patent publication US20100160335A1, “PYRIDAZINONE DERIVATIVE AND PDE INHIBITOR CONTAINING THE SAME AS ACTIVE INGREDIENT” (KYORIN PHARMACEUTICAL CO., LTD., priority 2007, published 2010)
